# Data taken from the supplement of paper PMC10307832.
# What was measured:
# Assay in all cases: relative viability (nuclei count vs DMSO), 5 days (fraction); higher = more cells survive
# [1] = compound: C=CC(=O)N1CCC[C@@H](n2nc(-c3ccc(Oc4ccccc4)cc3)c3c(N)ncnc32)C1 [Ibrutinib] + CC(=O)Nc1cccc(-n2c(=O)n(C3CC3)c(=O)c3c(Nc4ccc(I)cc4F)n(C)c(=O)c(C)c32)c1 [Trametinib] (partner 0.02 µM)
# Method in brief: (§1)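 Relative viability is defined as nuclei in treated wells over nuclei in vehicle wells. Duplicate plates were run and medians reported. Lung cancer cell lines in 1536-well plates were dosed by pin tool one day after seeding, with one drug or with a fixed anchor-drug dose plus five library-drug doses (not always all listed) in √10 steps, and nuclei were counted after 5 days.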
# [2] = compound: C=CC(=O)N1CCC[C@@H](n2nc(-c3ccc(Oc4ccccc4)cc3)c3c(N)ncnc32)C1 [Ibrutinib] + CS(=O)(=O)N1CCN(Cc2cc3nc(-c4cccc5[nH]ncc45)nc(N4CCOCC4)c3s2)CC1 [Pictilisib] (partner 1 µM)
# Method in brief: as §1
# [3] = compound: C=CC(=O)Nc1cc(-n2c(=O)ccc3cnc4ccc(-c5ccc(NS(C)(=O)=O)cc5)cc4c32)ccc1C [BMX-IN-1] + COc1cc2c(Oc3ccc(NC(=O)C4(C(=O)Nc5ccc(F)cc5)CC4)cc3F)ccnc2cc1OCCCN1CCOCC1 [Foretinib] (partner 0.25 µM)
# Method in brief: as §1
# [4] = compound: C=CC(=O)Nc1cc(-n2c(=O)ccc3cnc4ccc(-c5ccc(NS(C)(=O)=O)cc5)cc4c32)ccc1C [BMX-IN-1] + Cc1cc(Nc2cc(N3CCN(C)CC3)nc(Sc3ccc(NC(=O)C4CC4)cc3)n2)n[nH]1 [Tozasertib] (partner 0.1 µM)
# Method in brief: as §1
cell line,measurement,setting,value
SK-MES-1,relative viability,[1]; first compound 0.005 µM,0.591
same,relative viability,[1]; first compound 0.01581 µM,0.467
same,relative viability,[1]; first compound 0.05 µM,0.36
same,relative viability,[1]; first compound 0.1581 µM,0.611
same,relative viability,[1]; first compound 0.5 µM,0.297
same,relative viability,[2]; first compound 0.005 µM,0.307
same,relative viability,[2]; first compound 0.01581 µM,0.274
same,relative viability,[2]; first compound 0.05 µM,0.254
same,relative viability,[2]; first compound 0.1581 µM,0.342
same,relative viability,[2]; first compound 0.5 µM,0.198
same,relative viability,[3]; first compound 0.02 µM,0.877
same,relative viability,[3]; first compound 0.2 µM,1.02
same,relative viability,[3]; first compound 0.6325 µM,0.967
same,relative viability,[3]; first compound 2 µM,0.728
same,relative viability,[4]; first compound 0.02 µM,1.12
same,relative viability,[4]; first compound 0.2 µM,1.15
same,relative viability,[4]; first compound 0.6325 µM,1.07
same,relative viability,[4]; first compound 2 µM,0.884
